The values that follow come from US20190030039A1, “PREVENTION OF SSRI-INDUCED GASTROINTESTINAL DYSFUNCTION WITH A 5-HT4 RECEPTOR ANTAGONIST” (The Trustees of Columbia University in the City of New York, priority 2016, published 2019).

Data set [1] concerns mice. Nature of the data set: Novelty-suppressed feeding (NSF) test, measurement of anxiety. In kind it is in vivo, mouse. Conditions: FIGS. 3A-3D. The protocol: FIGS. 3A-3D are a series of bar graphs showing results from the novelty-suppressed feeding (NSF) test, a measurement of anxiety. Maternal dams were administered either water (control), Fluoxetine (SSRI), or both Fluoxetine and Piboserod (SSRI+Pibo) from E1 through weaning from breastfeeding. Pups were thus exposed to aforementioned medications during gestation and breastfeeding. Once pups were weaned, at P21, they were not given any medications. The pups were evaluated at 6-8 weeks of age to rule out acute drug effects. The NSF test began with a short term food restriction of 18 hours (water was still available). After the test, mice were given food ad libitum again. The NSF test is a “conflict” test, which assesses the competing motivations of the animal to explore (forage) for food versus remain in the safety of the periphery of the arena. Mice were placed into a white box with shavings on the floor and two food pellets placed on a circle of filter paper in the center of the arena. The latency to chew the food is the measure of anxiety. Measured times included time to reach the filter paper with the food pellet on it (“time to filter”), time to touch/smell the pellet (“time to pellet”), time to bite the pellet (“time to bite”) and time to sit and eat the pellet (“time to sit and eat”). […]

Data set [2] concerns mice. Nature of the data set: Sucrose preference test, measurement of depression. Format: in vivo, mouse. Conditions: FIG. 4. The protocol: FIG. 4 is a bar graph showing results from the sucrose preference test, a measurement of depression in mice. Maternal dams were administered either water (control), Fluoxetine (SSRI), or both Fluoxetine and Piboserod (SSRI+Pibo) from E1 through weaning from breastfeeding. Pups were thus exposed to aforementioned medications during gestation and breastfeeding. Once pups were weaned, at P21, they were not given any medications. The pups were evaluated at 6-8 weeks of age to rule out acute drug effects. For the sucrose preference test, mice were trained for 2 days to drink diluted sucrose and water from serological pipettes with sippers attached and testing was done on day 3. The volumes of sucrose and water consumed overnight were recorded. A reduced preference for sucrose solution over plain water represents anhedonia.
(§1) In the present invention, the serotonin-4 receptor (5-HT4R) has been identified as a critical player in SERT modulation, ENS and CNS development and GI function. […] (FIGS. 1-2). […] Administration of a 5-HT4R antagonist during neurodevelopment thus corrects the long-lasting gastrointestinal motility and behavioral defects caused by developmental exposure to SSRls.

The conditions of data set [3]: at birth; in utero exposure; cited from earlier work.
Data set [4] has as its system mice. Nature of the data set: Total intestinal transit time (Rhodamine B bolus) in pups exposed during gestation and breastfeeding. Format: in vivo. Conditions: Piboserod given to mouse mothers during pregnancy and breastfeeding concomitantly with Fluoxetine; pups evaluated at 6-8 weeks; FIG. 1. As to the method: FIG. 1 is a bar graph showing total intestinal transit time (expressed as percentage of control). Maternal dams were administered either water (control), Fluoxetine (SSRI), or both Fluoxetine and Piboserod (SSRI+Pibo) from embryonic day 1 (E1) through weaning from breastfeeding. Pups were thus exposed to aforementioned medications during gestation and breastfeeding. Once pups were weaned, at postnatal day 21 (P21), they were not given any medications. Pups were then evaluated at 6-8 weeks of age to rule out acute drug effects. Total intestinal transit time was measured by administering a bolus of Rhodamine B (time 0) and calculating the amount of time until the rhodamine was found in the stool.
as §1

The test system of data set [5] is mice. Nature of the data set: Colonic transit time (glass bead expulsion) in pups exposed during gestation and breastfeeding. Format: in vivo. The following applies: Piboserod given to mouse mothers during pregnancy and breastfeeding concomitantly with Fluoxetine; pups evaluated at 6-8 weeks; FIG. 2. As to the method: FIG. 2 is a bar graph showing colonic transit time (expressed as percentage of control). Maternal dams were administered either water (control), Fluoxetine (SSRI), or both Fluoxetine and Piboserod (SSRI+Pibo) from E1 through weaning from breastfeeding. Pups were thus exposed to aforementioned medications during gestation and breastfeeding. Once pups were weaned, at P21, they were not given any medications. Pups were evaluated at 6-8 weeks of age to rule out acute drug effects. Colonic transit time was measured by inserting a 2 mm glass bead 4 cm into the rectum and calculating the time it took for bead expulsion to occur.
as §1

[6] abbreviates: mice exposed to Fluoxetine in utero and during breastfeeding, evaluated at 6-8 weeks.
Where [7] appears, read: mice exposed to Piboserod and Fluoxetine concomitantly in utero and during breastfeeding.

Molecules are shown by their SMILES.

Consider `CNCCC(Oc1ccc(C(F)(F)F)cc1)c1ccccc1` (stereo not shown) [Fluoxetine], for which the “levels of anxiety (novelty-suppressed feeding)” value in the data set on mice [1] (setting [6]) is “increased levels”. In addition, in the data set on mice [2] (setting [6]), the “levels of depression (sucrose preference test)” value is reported as “increased levels”. In data set [3], the “plasma Fluoxetine levels in newborns, of maternal levels” value is listed as “approximately 70%”.
Regarding `CCCCN1CCC(CNC(=O)c2c3n(c4ccccc24)CCCO3)CC1` [Piboserod], the total intestinal transit entry with mice [4] was “comparable with control mice”. Also, the “anxiety behavior (novelty-suppressed feeding)” value with mice [1] (setting [7]) is “behaviorally comparable to control mice”. Moreover, the colonic motility entry in the data set with mice [5] is recorded as “comparable with control mice”. For the same molecule, the “depression behavior (sucrose preference test)” value with mice [2] (setting [7]) is given as “behaviorally comparable to control mice”.
